Test results reported in patent US20080287299A1, “Use of Imidazole and/or Triazole Derivatives for Combating Plant Pests; as Well as Method for Controlling Diseases/Insects/Mites/Nematodes and Weeds, Particularly Foliar and/or Soil Diseases” (priority 2005, published 2008).

Columns and labels:
Phakopsora pachyrhizi [1] = assay: Greenhouse soybean rust test, plants at V6 stage, evaluated every 5 days; format: in vivo; conditions: for SEVERITY OF RUST (% IFA) 5 DAT / SEVERITY OF RUST (% IFA) 10 DAT / SEVERITY OF RUST (% IFA) 15 DAT: soybean
Source text: Recent tests carried out in greenhouses the laboratory of FMC Quimica do Brasil Ltda. in Uberaba, MG, Brazil, show the highly fungicidal effect of said specific imidazole and/or triazole derivatives in combating diseases of plants, particularly against the attack by the fungus Phakopsora pachyrhizi on soybeans, as described hereinafter. […]
(§1) Equipment: a manual sprayer commonly used in agriculture with 2-liter capacity.
Dosages: 50 to 500 grams per hectare of the active compound Fluconazole per liter diluted in water.
Evaluations of the Effectiveness of the Product: The evaluations were made every 5 days after application of the product, in a total of 4 evaluations. As an evaluation parameter one utilized the severity of the disease (percentage of foliar area attacked by rust) according to the diagrammatic scale of the EMBRAPA (FIG. 1). […]
Dosages: 50 to 500 grams per hectare of the active compound Itraconazole per liter diluted in water.

Phakopsora pachyrhizi [2] = assay: Greenhouse soybean rust test, plants at V5 stage, evaluated every 7 days; format: in vivo; conditions: for SEVERITY OF RUST (% IFA) 7 DAT / SEVERITY OF RUST (% IFA) 14 DAT / SEVERITY OF RUST (% IFA) 21 DAT / SEVERITY OF RUST (% IFA) 28 DAT: soybean
Source text: Recent tests carried out in greenhouses the laboratory of FMC Quimica do Brasil Ltda. in Uberaba, MG, Brazil, show the highly fungicidal effect of said specific imidazole and/or triazole derivatives in combating diseases of plants, particularly against the attack by the fungus Phakopsora pachyrhizi on soybeans, as described hereinafter.
Experimental Outline Experimental Outline: entirely made with five repetitions, two plants per repetition, totaling 10 plants.
a) Preventive Mode: 30 days after plantation of the soybeans in plastic 2-liter pots and with corresponding volumes of soil, the soybean plants were at the V5 stage with six expanded folioles. At this moment, the compounds were sprayed and then, 48 hours afterwards, inoculation of the rust was effected. To effect the inoculation, one prepared a suspension of Phakopsora uredospores at the concentration of 2×10^4 spores/milliliters.
b) Healing mode: 30 days after plantation of the soybeans in 2-liter plastic pots and with a corresponding volume of soil, the soybean plants were at the V5 stage with six expanded folioles. At this moment, one effected the inoculation of the rust and then, 48 hours afterwards, the compounds were sprayed. To effect the inoculation, one prepared a suspension of Phakopsora uredospores at the concentration of 2×10^4 spores/milliliters.
as §1
Dosages: 50 to 300 grams per hectare of the active compound Itraconazole per liter diluted in water.
Evaluations of the Effectiveness of the Product: The evaluations were made every 7 days after application of the product, in a total of 4 evaluations. As an evaluation parameter one utilized the severity of the disease (percentage of foliar area attacked by rust) according to FIG. 1).
Dosages: 50 to 300 grams per hectare of the active compound Voriconazole per liter diluted in water.

[3] = from 50 grams of active ingredient per hectare

CCC(C)n1ncn(-c2ccc(N3CCN(c4ccc(OC[C@H]5CO[C@](Cn6cncn6)(c6ccc(Cl)cc6Cl)O5)cc4)CC3)cc2)c1=O (mixture of isomers) [Itraconazole, 4-[4-[4-[4-[[2-(2,4-dichlorophenyl)-2-(1H-1,2,4-triazol-1-ylmethyl)-1,3-dioxolan-4-yl]methoxy]phenyl]-1-pipera-zinyl]phenyl]-2,4-dihydro-2-(1-methylpropyl) 3H-1,2,4-triazol-3-one]
SEVERITY OF RUST (% IFA) 5 DAT (Phakopsora pachyrhizi [1]; Table 3: 50 g ac/ha): 6 % IFA | SEVERITY OF RUST (% IFA) 10 DAT (Phakopsora pachyrhizi [1]; Table 3: 50 g ac/ha): 12 % IFA | SEVERITY OF RUST (% IFA) 15 DAT (Phakopsora pachyrhizi [1]; Table 3: 50 g ac/ha): 11 % IFA | SEVERITY OF RUST (% IFA) 5 DAT (Phakopsora pachyrhizi [1]; Table 3: 100 g ac/ha): 5 % IFA | SEVERITY OF RUST (% IFA) 10 DAT (Phakopsora pachyrhizi [1]; Table 3: 100 g ac/ha): 13 % IFA | SEVERITY OF RUST (% IFA) 15 DAT (Phakopsora pachyrhizi [1]; Table 3: 100 g ac/ha): 10 % IFA | SEVERITY OF RUST (% IFA) 5 DAT (Phakopsora pachyrhizi [1]; Table 3: 150 g ac/ha): 5 % IFA | SEVERITY OF RUST (% IFA) 10 DAT (Phakopsora pachyrhizi [1]; Table 3: 150 g ac/ha): 13 % IFA | SEVERITY OF RUST (% IFA) 15 DAT (Phakopsora pachyrhizi [1]; Table 3: 150 g ac/ha): 10 % IFA | SEVERITY OF RUST (% IFA) 5 DAT (Phakopsora pachyrhizi [1]; Table 3: 250 g ac/ha): 3 % IFA | SEVERITY OF RUST (% IFA) 10 DAT (Phakopsora pachyrhizi [1]; Table 3: 250 g ac/ha): 14 % IFA | SEVERITY OF RUST (% IFA) 15 DAT (Phakopsora pachyrhizi [1]; Table 3: 250 g ac/ha): 10 % IFA | SEVERITY OF RUST (% IFA) 5 DAT (Phakopsora pachyrhizi [1]; Table 3: 500 g ac/ha): 0 % IFA | SEVERITY OF RUST (% IFA) 10 DAT (Phakopsora pachyrhizi [1]; Table 3: 500 g ac/ha): 10 % IFA | SEVERITY OF RUST (% IFA) 15 DAT (Phakopsora pachyrhizi [1]; Table 3: 500 g ac/ha): 0 % IFA | effective in controlling soybean rust (Phakopsora pachyrhizi [1]; [3]): effective in controlling soybean rust

C[C@@H](c1nc(-c2ccc(C#N)cc2)cs1)[C@](O)(Cn1cncn1)c1ccc(F)cc1F [Ravuconazole, 4-[2-[(1R,2R)-2-(2,4-difluor-phenyl)-2-hydroxy-1-methyl-3-(1H-1,2,4-triazol-1-yl)propyl]4-thiazolyl]-benzonitriyl]
SEVERITY OF RUST (% IFA) 7 DAT (Phakopsora pachyrhizi [2]; Table 4: 50 g ca/ha): 15 % IFA | SEVERITY OF RUST (% IFA) 14 DAT (Phakopsora pachyrhizi [2]; Table 4: 50 g ca/ha): 16 % IFA | SEVERITY OF RUST (% IFA) 21 DAT (Phakopsora pachyrhizi [2]; Table 4: 50 g ca/ha): 16 % IFA | SEVERITY OF RUST (% IFA) 28 DAT (Phakopsora pachyrhizi [2]; Table 4: 50 g ca/ha): 18 % IFA | SEVERITY OF RUST (% IFA) 7 DAT (Phakopsora pachyrhizi [2]; Table 4: 100 g ca/ha): 12 % IFA | SEVERITY OF RUST (% IFA) 14 DAT (Phakopsora pachyrhizi [2]; Table 4: 100 g ca/ha): 12 % IFA | SEVERITY OF RUST (% IFA) 21 DAT (Phakopsora pachyrhizi [2]; Table 4: 100 g ca/ha): 14 % IFA | SEVERITY OF RUST (% IFA) 28 DAT (Phakopsora pachyrhizi [2]; Table 4: 100 g ca/ha): 18 % IFA | SEVERITY OF RUST (% IFA) 7 DAT (Phakopsora pachyrhizi [2]; Table 4: 150 g ca/ha): 9 % IFA | SEVERITY OF RUST (% IFA) 14 DAT (Phakopsora pachyrhizi [2]; Table 4: 150 g ca/ha): 11 % IFA | SEVERITY OF RUST (% IFA) 21 DAT (Phakopsora pachyrhizi [2]; Table 4: 150 g ca/ha): 11 % IFA | SEVERITY OF RUST (% IFA) 28 DAT (Phakopsora pachyrhizi [2]; Table 4: 150 g ca/ha): 16 % IFA | SEVERITY OF RUST (% IFA) 7 DAT (Phakopsora pachyrhizi [2]; Table 4: 200 g ca/ha): 3 % IFA | SEVERITY OF RUST (% IFA) 14 DAT (Phakopsora pachyrhizi [2]; Table 4: 200 g ca/ha): 7 % IFA | SEVERITY OF RUST (% IFA) 21 DAT (Phakopsora pachyrhizi [2]; Table 4: 200 g ca/ha): 11 % IFA | SEVERITY OF RUST (% IFA) 28 DAT (Phakopsora pachyrhizi [2]; Table 4: 200 g ca/ha): 15 % IFA | SEVERITY OF RUST (% IFA) 7 DAT (Phakopsora pachyrhizi [2]; Table 4: 300 g ca/ha): 2 % IFA | SEVERITY OF RUST (% IFA) 14 DAT (Phakopsora pachyrhizi [2]; Table 4: 300 g ca/ha): 3 % IFA | SEVERITY OF RUST (% IFA) 21 DAT (Phakopsora pachyrhizi [2]; Table 4: 300 g ca/ha): 9 % IFA | SEVERITY OF RUST (% IFA) 28 DAT (Phakopsora pachyrhizi [2]; Table 4: 300 g ca/ha): 11 % IFA | effective in controlling soybean rust (Phakopsora pachyrhizi [2]; [3]): effective
